Experimental data as given in article PMC8380212, “^18F-labeled tracers targeting fibroblast activation protein” (EJNMMI Radiopharmacy and Chemistry, 2021).

Columns and labels:
[1] = biological target: T1, CD26 expressing HEK-CD26 cells (Homo sapiens, UniProt P27487); test: In vitro binding on HEK-CD26 cells (negative control); type: cell-based
T1 construct: expressed in transfected cells; host or cells: HEK cells transfected with CD26/DPP4 (HEK-CD26)
Protocol: (§1) The binding properties of the FAPI derivatives were evaluated using the FAP‐transfected HT‐1080‐FAP and CD26 expressing HEK-CD26 cells. All cells were cultivated in Dulbecco's modified Eagle's medium (DMEM) containing 10% fetal calf serum (FCS) at 37 °C/5% carbon dioxide. Cells were seeded in 6-well plates and cultivated to a final confluence of approximately 80–90% (1.2 to 2.0 × 10^6 cells/well). After washing with FCS free medium, for each well ca. 3 kBq of the radiolabeled compound (10–20 GBq/µmol for [^18F]AlF-labeling) was added to the cells in FCS free medium. On completion of the individual incubation time, cells were washed with PBS and treated with 1.4 mL lysis buffer (0.3 m NaOH, 0.2% SDS) before being transferred to measuring tubes. Competition experiments were performed by co-incubation with the unlabeled precursor for 60 min. Radioactivity was determined in a Wizard Gamma Counter (Perkin Elmer), normalized to 10^6 cells and calculated as percentage of the applied dose (%AD). Each experiment was performed in triplicate.

[2] = tested on: NSCLC primary tumor and metastases; test: Clinical PET/CT imaging of a patient with NSCLC; type: in vivo, human; conditions: for SUVmean / SUVmax: primary tumor and metastases; for SUVmax: 323 MBq i.v.
Protocol: [^18F]AlF-FAPI-74 (16.2 GBq/µmol at time of injection) was applied intravenously (20 nmol; 323 MBq) to a patient with NSCLC. The PET/CT scans were performed 1 and 3 h post tracer administration with a Biograph mCT Flow™ PET/CT-Scanner (Siemens Medical Solutions). The parameters used were slice thickness of 5 mm, increment of 3–4 mm, soft-tissue reconstruction kernel and care dose. After CT scanning, a whole-body PET was acquired in 3D (matrix 200 × 200) in FlowMotion™ with 0.7 cm/min. The emission data were corrected for random, scatter and decay. Reconstruction was conducted with an ordered subset expectation maximization (OSEM) algorithm with 2 iterations/21 subsets and Gauss-filtered to a transaxial resolution of 5 mm at full-width half-maximum. Attenuation correction was performed using the low-dose non-enhanced CT data. The quantitative assessment of standardized uptake values (SUV) was done using a region of interest technique.

FAP (HT-1080-FAP cells) = biological target: T2, FAP (HT-1080-FAP cells) (Homo sapiens, UniProt Q12884); test: Competition experiments with unlabeled precursor on HT-1080-FAP cells; type: binding; conditions: co-incubation with unlabeled precursor for 60 min
T2 construct: expressed in transfected cells; host or cells: HT-1080 cells transfected with FAP (HT-1080-FAP)
T2 sequence (Q12884 1-760): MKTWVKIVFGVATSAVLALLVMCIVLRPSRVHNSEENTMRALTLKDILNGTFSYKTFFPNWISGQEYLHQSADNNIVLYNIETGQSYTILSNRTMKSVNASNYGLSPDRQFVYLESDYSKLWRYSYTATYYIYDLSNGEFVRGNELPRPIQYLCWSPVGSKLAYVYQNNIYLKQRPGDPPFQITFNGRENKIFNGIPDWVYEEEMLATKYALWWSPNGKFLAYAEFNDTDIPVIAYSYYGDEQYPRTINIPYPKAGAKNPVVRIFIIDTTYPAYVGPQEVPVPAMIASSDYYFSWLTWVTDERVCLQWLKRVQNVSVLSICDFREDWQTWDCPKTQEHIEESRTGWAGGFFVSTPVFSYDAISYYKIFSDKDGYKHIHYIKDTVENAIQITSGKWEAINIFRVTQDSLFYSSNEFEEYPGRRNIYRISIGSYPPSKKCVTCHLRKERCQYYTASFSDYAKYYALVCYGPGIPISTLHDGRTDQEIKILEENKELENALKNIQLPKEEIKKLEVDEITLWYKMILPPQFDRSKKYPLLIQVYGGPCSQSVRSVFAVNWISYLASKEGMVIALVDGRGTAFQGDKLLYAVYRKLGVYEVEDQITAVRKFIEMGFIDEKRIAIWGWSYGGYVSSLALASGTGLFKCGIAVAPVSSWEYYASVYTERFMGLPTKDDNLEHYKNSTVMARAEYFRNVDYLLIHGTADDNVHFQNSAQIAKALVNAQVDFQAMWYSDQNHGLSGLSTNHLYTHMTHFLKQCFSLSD
Protocol: as §1

Serum stability assay = type: in vitro ADME, human; conditions: 37 °C, 10 min to 4 h, radio-HPLC
Protocol: Five MBq of purified [^18F]AlF-FAPI-74 (20 GBq/µmol) were dried under reduced pressure and the residue incubated in 300 µL human serum (Sigma Aldrich Germany) at 37 °C. After different time intervals (10 min to 4 h) 20 µL samples were precipitated with 40 µL acetonitrile. The stability of the labeled peptide was monitored by radio-HPLC of the supernatant. A gradient of 0% to 30% acetonitrile in 10 min was used for enhanced separation performance.

HT-1080-FAP xenografts = test: Small animal PET imaging; type: in vivo, BALB/c nu/nu mice
Protocol: Eight-week-old BALB/c nu/nu mice (Charles River) were subcutaneously inoculated with 5 × 10^6 HT-1080-FAP cells. The subcutaneous xenografts were grown at the flanks of the mice. Xenografts were grown to a tumor diameter of 10–15 mm. Mice were anesthetized using isoflurane inhalation. 5–10 MBq of the [^18F]AlF-labeled compounds/ the respective tracer (FAPI-42/52/74/75/76; approx. 0.5 nmol; Am approximately 10–20 GBq/µmol) were injected intravenously for PET imaging. In vivo competition (blocking) experiments with ^68 Ga-FAPI-74 (9 MBq; 18.2 GBq/µmol) were performed by adding 30 nmol of unlabeled FAPI-74 to the injection solution. Images were acquired using a small-animal PET scanner (Inveon, Siemens). Within the first 60 min p.i., a dynamic scan was performed in list mode, followed by a static scan from 120–140 min post injection. Images were reconstructed iteratively using the 3D-OSEM + MAP method (Siemens) and were converted to standardized uptake value (SUV). For the dynamic analysis, 28 frames were reconstructed. Quantification was based on ROI analysis and expressed as SUV.
SUPPLEMENTAL TABLE 1: Tumor-SUVmean values of all mentioned ^18F labeled FAPI-derivatives in HT1080-FAP transplanted nude mice at different time points. The time points 8 min, 22 min and 57 min were selected from the applied 28-frame 3D-OSEM+MAP (Siemens) reconstruction method.

[3] = small animal PET, HT-1080-FAP xenograft

T1 sequence (P27487 whole entry): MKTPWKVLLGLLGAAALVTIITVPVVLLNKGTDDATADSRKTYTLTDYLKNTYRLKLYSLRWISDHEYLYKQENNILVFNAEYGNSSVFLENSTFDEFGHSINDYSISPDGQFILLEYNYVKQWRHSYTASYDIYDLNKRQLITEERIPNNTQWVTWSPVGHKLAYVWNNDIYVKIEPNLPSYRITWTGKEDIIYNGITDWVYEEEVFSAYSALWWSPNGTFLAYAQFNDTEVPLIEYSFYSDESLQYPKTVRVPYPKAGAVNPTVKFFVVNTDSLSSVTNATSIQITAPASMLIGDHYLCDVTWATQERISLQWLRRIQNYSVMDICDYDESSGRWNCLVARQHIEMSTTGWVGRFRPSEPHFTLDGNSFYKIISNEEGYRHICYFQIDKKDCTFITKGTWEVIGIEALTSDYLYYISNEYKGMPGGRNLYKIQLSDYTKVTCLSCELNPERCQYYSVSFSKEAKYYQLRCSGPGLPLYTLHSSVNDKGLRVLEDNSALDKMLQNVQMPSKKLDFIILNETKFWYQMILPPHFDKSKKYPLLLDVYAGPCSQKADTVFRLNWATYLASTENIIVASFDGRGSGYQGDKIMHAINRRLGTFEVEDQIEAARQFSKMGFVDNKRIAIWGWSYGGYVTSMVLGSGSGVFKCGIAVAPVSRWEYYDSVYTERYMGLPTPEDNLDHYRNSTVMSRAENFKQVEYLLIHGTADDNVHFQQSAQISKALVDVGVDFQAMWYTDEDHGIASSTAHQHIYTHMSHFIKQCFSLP

- uptake CD26 [1]: 0.18 ± 0.04 %AD/10^6 cells
- excretion route in patient ([2]; non-target tissues and blood pool): excreted predominantly via the kidneys
- SUV in normal tissues ([2]; normal tissues of the patient): almost zero
- SUVmean ([2]; 1 h): 3.3 ± 0.6
- SUVmax ([2]; 1 h): 6.5 ± 1.1
- SUVmean ([2]; 3 h): 2.75 ± 0.5
- SUVmax ([2]; 3 h): 5.6 ± 0.7
- EC50 (FAP (HT-1080-FAP cells)): 4.2 nM
- stability in human serum (Serum stability assay; listed as 18F-labeled FAPI-74): No degradation products were observed
- Tumor Uptake (SUVmean) 8 min (HT-1080-FAP xenografts; HT1080-FAP transplanted nude mice, 8 min): 1.58
- Tumor Uptake (SUVmean) 22 min (HT-1080-FAP xenografts; HT1080-FAP transplanted nude mice, 22 min): 1.81
- Tumor Uptake (SUVmean) 57 min (HT-1080-FAP xenografts; HT1080-FAP transplanted nude mice, 57 min): 1.91
- Tumor Uptake (SUVmean) 120 min (HT-1080-FAP xenografts; HT1080-FAP transplanted nude mice, 120 min): 1.3
- excretion pathway (HT-1080-FAP xenografts; small animal PET in tumor bearing mice): favorable renal excretion
- tumor uptake SUVmean (HT-1080-FAP xenografts; small animal PET screening, discussion): approx. 2.0
- tumor-SUV max (HT-1080-FAP xenografts; [3]): 2.3
- tumor-SUV mean (HT-1080-FAP xenografts; [3]): 1.9
SMILES: N#C[C@@H]1CCCN1C(=O)CNC(=O)c1ccnc2ccc(OCCCN3CCN(C(=O)CN4CCN(CC(=O)O)CCN(CC(=O)O)CC4)CC3)cc12 [FAPI-74]
- stability in human serum (Serum stability assay; listed as [^18F]AlF-FAPI-74): no degradation of the tracer or instability of the [^18F]AlF-NOTA complex
